Test results as given in patent US20210188773A1, “NOVEL POLYMOPHS OF S-NITROSOCAPTOPRIL (CAP-NO) AND ITS PROCESS FOR PREPARATION” (FUZHOU UNIVERSITY, priority 2018, published 2021).

Tested on: Pulmonary hypertension (PAH) rats
Assay: Effect on monocrotaline (MCT) pulmonary hypertension (PAH) model rats
Format: in vivo, rat
Description: Pulmonary hypertension (PAH) rats, being monocrotaline (MCT) intraperitoneal injected, were divided into 4 groups: control group (n=7), 50 mg/kg captopril group (n=7), 10 mg/kg S-nitrosocaptopril group (n=7), 50 mg/kg S-nitrosocaptopril group (n=7) and health group (n=9). Rats of all groups were orally administered once a day for 30 days.

## C[C@H](CS)C(=O)N1CCC[C@H]1C(=O)O [captopril, Captopril]
50 mg/kg oral once a day
  average pleural effusion of dead rats: 3.3 mL
  mean right ventricular mass index (RVMI): 53.8%
50 mg/kg oral once a day for 30 days
  number of rats remaining (from 7): 3
